Test results reported in patent US12371434B2, “MLL1 inhibitors and anti-cancer agents” (NOVARTIS AG, priority 2020, dated 2025).

Legend:
[1] = test system: MV4-11 cells; test: MV4-11 6-day cell growth CTG (CellTiter-Glo) assay; assay type: cell-based; settings: Homo sapiens, 144 h, 6 days
Method: MV4-11 6-Day Cell Growth CTG (CellTiter-Glo) Assay
Acute myeloid leukemia cell MV4-11 (ATCC® CRL-9591™) was cultured with RPMI 1640 medium (Thermo Fisher Scientific, cat #11875) supplemented with 10% FBS (Thermo Fisher Scientific, cat #10099141) in humidified incubator at 37° C., 5% CO2. To assess the effect of MLL1 inhibition on cell growth, the compound of the present invention was dissolved in DMSO and serially diluted at 1:3 for 12 points starting from 10 mM then 200 nL for the replicate of each dose per well was dispensed to Viewplate-384 Black (Perkin Elmer). Exponentially growing MV4-11 cells were seeded at the density of 300 cells per well in 40 μL to the plate, so the final compound working concentration starts from 50 μM. After 6 days, 40 μL CellTiter-Glo (Promega, cat #G7573) was added into the cell culture well and luminescence was read with Envision (Perkin Elmer) to determine the viable cells. The percentage inhibition was calculated against the samples treated with DMSO only and the data were used for dose response curve fitting in GraphPad Prism to get the IC50 of representative compound of present invention, which reflects the inhibition of MLL1 activity.

[2] = test system: H3K4me3 in MV4-11 cells; test: MV4-11 H3K4Me3 cellular ELISA assay; assay type: cell-based; settings: Homo sapiens, 48 hours, H3K4me3 signal normalized to total H3
Method: MV4-11H3K4Me3 Cellular ELISA Assay
MV4-11 (ATCC® CRL-9591™) was cultured with RPMI1640 medium (Thermo Fisher Scientific, cat #11875) supplemented with 10% FBS (Thermo Fisher Scientific, cat #10099141) and 50 U/ml Penicillin-Streptomycin (Thermo Fisher Scientific, cat #10378016) in humidified incubator at 37° C., 5% CO2.
200 nL compounds dissolved in DMSO were serially diluted at 1:3 ratio for 12 points starting from 10 mM and dispensed into each wells of cell culture plates (PDL-coated ViewPlate-384 Black, FTC, PerkinElmer, #6007710). 3,750 MV4-11 cells in 40 μL culture medium were seeded into each well and treated with desired concentration for 48 hours. After treatment, wash cells with cold phosphate based buffer (PBS, pH 7.4) and aspirate the remaining PBS buffer. Crude histone lysate was extracted by 40 μL 0.5M HCl for 1 hour in 4° C. following neutralization by adding 32 μL neutralization buffer (0.5M Sodium phosphate dibasic, pH˜12.5, 1.25 mM Dithiothreitol, Promega #V3151, Protease Inhibitor Cocktail, Sigma #8340) for each well. 5 μL and 20 μL of histone lysate was loaded to ELISA plate (384 Well Plates, PE HB, White, 6005620) for detection of total H3 and H3K4me3, respectively. Shake the plates gently in 4° C. for overnight. After histone binding, plates were washed with 80 μL PBS/T (PBS with 0.05% Tween-20) and blocked with 50 μL 3% BSA diluted in PBS/T per well for 1 hour. Incubate wells with primary antibody for 1 hour at room temperature using anti-H3K4me3 (CST #9727) and anti-total H3 (CST #9715) diluted 1:2000 in 3% BSA. Plates were then washed with PBS/T for 3 times and incubated with horseradish peroxidase (HRP) conjugated secondary antibody (CST #7074, 1:5000) for 1 hour at room temperature. The abundance of H3K4me3 and total H3 were measured by ECL substrates chemiluminesce (Pierce, #34080) on a plate reader (PerkinElmer EnVison 2104 Mutilable Reader). Percentage inhibition was calculated against DMSO control after normalization of H3K4me3 signal to H3 signal for individual samples. The data were then fit to a dose response curve using GraphPad Prism for IC50 calculation.

[3] = target: wild type MLL1 five-member complex (MLL1-5C) (Homo sapiens, UniProt Q03164); test: MLL1 Flashplate assay; assay type: biochemical; settings: 2.5 nM MLL1-5C, 0.5 μM 3H-SAM, 1 μM H3K4me0; read-out: MLL1 flash plate
Method: MLL1 Flashplate Assay To assess the compound potency in MLL1 Flashplate assay, compounds were serially diluted 3-fold in DMSO to obtain a total of twelve concentrations. Then the test compounds at each concentration (250 nL of each) were transferred by Mosquito into Corning #3675 384-well plate. Solutions (15 μL) of 4.2 nM wild type MLL1 five-member complex (MLL1-5C) in the assay buffer (20 mM Tris-HCl, pH8.0, 0.01% Tween 20, 1 mM DTT, 0.01% BSA) were added to the wells. A 10 μL solution of 2.5 μM of the peptide substrate H3K4me0 (histone H3[1-21]-Biotin) and 1.25 μM ^3H-SAM in the reaction buffer was then added to initiate each reaction. The final components in the reaction solution include 2.5 nM MLL1-5C, 0.5 μM ^3H-SAM, and 1 μM H3K4me0 with varying concentration of the compounds. A positive control consisted of 2.5 nM MLL1-5C, 0.5 μM ^3H-SAM, and 1 μM substrate in the absence of the test compound, and a negative control consisted of 0.5 μM ^3H-SAM, and 1 μM substrate only. Each reaction was incubated at rt for 90 min, then stopped by addition of 5 μL per of quench solution (0.5 mM SAM in assay buffer). 25 μL of each reaction solution was transferred to FlashPlate streptavidin 384-well microplate (PerkinElmer). After at least 1 h incubation at rt, the wells were washed three times with 0.1% Tween-20 in dH2O using the BioTek plate washer. The plates were then read in MicroBeta (PerkinElmer). The radioactive readouts were then normalized based on the values coming from the positive and negative controls to give percent enzyme activities. The data were then fit to a dose response equation using the program Helios to get the IC50 values of the test compounds.

[4] = target: wild type MLL1 four-member complex (MLL1-4C) (Homo sapiens, UniProt Q03164); test: MLL1 LC-MS assay; assay type: biochemical; settings: 30 nM MLL1-4C, 2.5 μM SAM, 10 μM H3K4me0; SAH production by LC-MS/MS; read-out: MLL1 LCMS
Method: The compounds of the present disclosure were serially and separately diluted 3-fold in DMSO to obtain a total of eight or twelve concentrations. Then the test compounds at each concentration (120 nL of each) were transferred by Mosquito into white Proxiplate plus 384-well microplate (PerkinElmer). Solutions (6 μL) of 60 nM wild type MLL1 four-member complex (MLL1-4C) and 5 μM SAM in the reaction buffer (20 mM Tris-HCl, pH8.0, 0.01% Tween 20, 1 mM DTT, 10 mM MgCl2, 0.01% BSA) were added to the wells that were then incubated with the test compound for 20 min. A 6 μL solution of 20 μM of the peptide substrate H3K4me0 (histone H3[1-21]-Biotin) in the reaction buffer was added to initiate each reaction. The final components in the reaction solution include 30 nM MLL1-4C, 2.5 μM SAM, and 10 μM H3K4me0 with varying concentration of the compounds. A positive control consisted of 30 nM MLL1-4C, 2.5 μM SAM, and 10 μM substrate in the absence of the test compound, and a negative control consisted of 2.5 μM SAM, and 10 μM substrate only. Each reaction was incubated at rt for 120 min, then stopped by addition of 3 μL per of quench solution (2.5% TFA with 320 nM d4-SAH). The reaction mixture was centrifuged (Eppendorf centrifuge 5810, Rotor A-4-62) for 2 min at 2000 rmp. The SAH production from the enzymatic assays were monitored by LC-MS/MS on an API 4000 triple quadrupole mass spec with TurboIon Spray (Applied Biosystem) coupled with Prominenece UFLC(Shimazu). The level of SAH production were then normalized based on the values coming from the positive and negative controls to give percent enzyme activities. The data were then fit to a dose response equation using the program Helios (Novartis) to get the IC50 values of the test compounds.

Row | SMILES | IC50 [1] | IC50 [2] | IC50 [3] | IC50 [4]
1 | Nc1ncnc2c1ncn2Cc1c(OCCC[C@@H](N)C(=O)NC2CC2)ccc(Cl)c1Cl [Example 42, (R)-2-amino-5-(2-((6-amino-9H-purin-9-yl)methyl)-3,4-dichlorophenoxy)-N-cyclopropylpentanamide] | < 2000 nM | < 1900 nM | < 60 nM | < 50 nM
2 | Nc1ncnc2c1ncn2Cc1c(OCCC[C@@H](N)CO)ccc(Cl)c1Cl [Example 45, (R)-2-amino-5-(2-((6-amino-9H-purin-9-yl)methyl)-3,4-dichlorophenoxy)pentan-1-ol] | 2000 to 3000 nM | – | 60 to 100 nM | 50 to 100 nM
3 | Cc1nnc([C@H](N)CCCOc2ccc(Cl)c(Cl)c2Cn2cnc3c(N)ncnc32)s1 [Example 50, (R)-9-(6-(4-amino-4-(5-methyl-1,3,4-thiadiazol-2-yl)butoxy)-2,3-dichlorobenzyl)-9H-purin-6-amine] | > 3000 nM | > 3000 nM | < 60 nM | < 50 nM
4 | COC[C@H](N)CCCOc1ccc(Cl)c(Cl)c1Cn1cnc2c(N)ncnc21 [Example 1, (R)-9-(6-((4-amino-5-methoxypentyl)oxy)-2,3-dichlorobenzyl)-9H-purin-6-amine] | 2000 to 3000 nM | > 3000 nM | < 60 nM | < 50 nM
5 | CN(C)C[C@H](N)CCCOc1ccc(Cl)c(Cl)c1Cn1cnc2c(N)ncnc21 [Example 53, (R)-5-(2-((6-amino-9H-purin-9-yl)methyl)-3,4-dichlorophenoxy)-N^1,N^1-dimethylpentane-1,2-diamine] | > 3000 nM | > 3000 nM | > 100 nM | > 100 nM
6 | COCCOC[C@H](N)CCCOc1ccc(Cl)c(Cl)c1Cn1cnc2c(N)ncnc21 [Example 47, (R)-9-(6-((4-amino-5-(2-methoxyethoxy)pentyl)oxy)-2,3-dichlorobenzyl)-9H-purin-6-amine] | > 3000 nM | – | > 100 nM | > 100 nM
7 | Nc1ncnc2c1ncn2Cc1c(OCCC[C@@H](N)c2nc[nH]n2)ccc(Cl)c1Cl [Example 48, (R)-9-(6-(4-amino-4-(1H-1,2,4-triazol-3-yl)butoxy)-2,3-dichlorobenzyl)-9H-purin-6-amine] | < 2000 nM | < 1900 nM | < 60 nM | < 50 nM
8 | CCOC(=O)[C@H](N)CCCOc1ccc(Cl)c(Cl)c1Cn1cnc2c(N)ncnc21 [Example 29, Ethyl (R)-2-amino-5-(2-((6-amino-9H-purin-9-yl)methyl)-3,4-dichlorophenoxy)pentanoate] | < 2000 nM | < 1900 nM | < 60 nM | < 50 nM
9 | CS(=O)(=O)NC(=O)[C@H](N)CCCOc1ccc(Cl)c(Cl)c1Cn1cnc2c(N)ncnc21 [Example 43, (R)-2-amino-5-(2-((6-amino-9H-purin-9-yl)methyl)-3,4-dichlorophenoxy)-N-(methylsulfonyl)pentanamide] | < 2000 nM | < 1900 nM | < 60 nM | < 50 nM
10 | COC[C@H](N)CCCOc1ccc2cc(Br)ccc2c1Cn1cnc2c(N)ncnc21 [Example 20, (R)-9-((2-((4-amino-5-methoxypentyl)oxy)-6-bromonaphthalen-1-yl)methyl)-9H-purin-6-amine] | > 3000 nM | > 3000 nM | < 60 nM | 50 to 100 nM
11 | CSC[C@H](N)CCCOc1ccc(Cl)c(Cl)c1Cn1cnc2c(N)ncnc21 [Example 52, (R)-9-(6-((4-amino-5-(methylthio)pentyl)oxy)-2,3-dichlorobenzyl)-9H-purin-6-amine] | > 3000 nM | – | > 100 nM | 50 to 100 nM
12 | COC[C@H](N)COc1ccc2ccccc2c1Cn1cnc2c(N)ncnc21 [Example 19, (S)-9-((2-(2-amino-3-methoxypropoxy)naphthalen-1-yl)methyl)-9H-purin-6-amine] | < 2000 nM | 1900 to 3000 nM | – | 50 to 100 nM
13 | CCOC(=O)[C@H](N)CCC(C)Oc1ccc(Cl)c(Cl)c1Cn1cnc2c(N)ncnc21 (stereo partly drawn) [Example 30, Ethyl (2R)-2-amino-5-(2-((6-amino-9H-purin-9-yl)methyl)-3,4-dichlorophenoxy)hexanoate] | < 2000 nM | 1900 to 3000 nM | – | 50 to 100 nM
14 | Nc1ncnc2c1ncn2Cc1c(OCCC[C@@H](N)C(=O)O)ccc(Cl)c1Cl [Example 23, (R)-2-amino-5-(2-((6-amino-9H-purin-9-yl)methyl)-3,4-dichlorophenoxy)pentanoic acid] | 2000 to 3000 nM | < 1900 nM | < 60 nM | < 50 nM
15 | Nc1ncnc2c1ncn2Cc1c(OCCC[C@@H](N)c2nnco2)ccc(Cl)c1Cl [Example 51, (R)-9-(6-(4-amino-4-(1,3,4-oxadiazol-2-yl)butoxy)-2,3-dichlorobenzyl)-9H-purin-6-amine] | > 3000 nM | – | 60 to 100 nM | > 100 nM
